Assay [1] has as its system MCF-7. Nature of the assay: MTT cytotoxicity assay, MCF-7 breast cancer cell line. Type of assay: cell-based, human. The note with it: MCF-7, MTT. The source says: (§1) To evaluate the antitumor activity of the newly synthesized sulfonamide carbonic anhydrase inhibitors (compounds M3, M4, and M5), we employed cell line assays using 3-(4,5-dimethylthiazol-2-yl)-2,5-diphenyltetrazolium (MTT). Two cell types were utilized in this study: MCF-7, a breast cancer cell line, to assess the effects of the compounds on cancer cells, and MCF10A, a normal breast epithelial cell line, to evaluate the effects on non-cancerous cells. These cell lines were procured from the Iranian National Cell Bank at the Pasteur Institute. MCF-7 cells were cultured in RPMI-1640 medium, while MCF10A cells were cultured in DMEM: F12 medium. Both media were supplemented with 10% fetal bovine serum (FBS), followed by the addition of antibiotics (100 µg/ml streptomycin and 100 units/ml penicillin). The cells were maintained in a humidified atmosphere at 37°C with 5% carbon dioxide. For cell passaging, a trypsin/EDTA solution (Gibco) and phosphate-buffered saline (PBS) were utilized. Cell viability was assessed using MTT from Sigma-Aldrich. Each type of cell (MCF-7 and MCF10A) was cultured separately in 96-well plates (1.4 × 10^4 cells per well with 200 µl of fresh medium) after a full day had passed (temperature of 37°C in a 5% CO2 environment). The supernatant was removed, and MTT solution at a concentration of 200 µl was added to each well and then incubated for four hours at a temperature of 37°C. After the end of the incubation period and to dissolve the formazan crystals, 100 µl of dimethyl sulfoxide (DMSO) was added, and the plate was left in a shaker at a temperature of 37°C until it was confirmed that all the crystals had completely dissolved. An ELISA reader (Model Wave xs2, BioTek) was used to measure cell vitality by absorption at 570 nm and calculate the IC50 values.

The test system of assay [2] is MCF10A. Nature of the assay: MTT cytotoxicity assay, MCF10A normal breast epithelial cell line. Type of assay: cell-based. The conditions noted are these: MCF10A normal cells, read-out: MCF10A IC50 (µM) ± SD.
Text: as §1
Background: Tetrazolium assays rely on reduction of a dye to a coloured formazan, in cell work by metabolically active cells.

Where [3] appears, read: Homo sapiens, MCF7, read-out: MCF-7 IC50 (µM) ± SD.

Broadly, the IC50 is the concentration needed to halve the response being measured.

Structures are written as SMILES. Where two headings read alike, the source gives them in different places.

As for `CN(C)c1ccc(/C=N/c2nc(Nc3ccc(S(N)(=O)=O)cc3)cs2)cc1` [Compound M4], the half-maximal inhibitory concentration (IC50) in assay [1] (Homo sapiens, MCF7, read-out: IC50 against MCF-7 cells) came out at 77.4 µg/mL; in assay [1] (setting [3]) it was 77.4 ± 3.31 µM; in assay [2] (Homo sapiens, MCF-10A) it was 52.5 ± 3.31 µM.

Turning to `N.N.[Cl][Pt][Cl]` [Cisplatin, reference compound], the concentration for half-maximal inhibition (IC50) in assay [1] (read-out: MCF-7 IC50 (µM) ± SD) amounted to 15.1 ± 2.25 µM; in assay [2] it was 13.6 ± 3.45 µM.

With `NS(=O)(=O)c1ccc(Nc2csc(N=Cc3ccc(O)cc3)n2)cc1` (stereo in doubt) [Compound M3, (Z)-4-((2-((4-hydroxybenzylidene)amino)thiazol-4-yl)amino) benzene sulfonamide], the 50% inhibitory concentration (IC50) in assay [1] (setting [3]) worked out at 87.7 ± 2.16 µM; in assay [2] (Homo sapiens, MCF-10A) it was 135 ± 4.19 µM.
